Columns and labels:
Type in all cases: in vivo
[1] = Bitterness reduction of a bitter substance solution (expert sensory panel), caffeine; conditions: 500 ppm Coffein; for Bitter-Eindruck (1-10) mit Testsubstanz: scale 1 [nicht bitter] to 10 [extrem bitter]
Text: (§1) Um die Reduzierung (d.h. die Maskierung oder Verminderung) des Bitter-Eindrucks in einer Probe zu quantifizieren, wurde die Bitterkeit einer Lösung enthaltend 500 ppm Coffein oder 300 ppm Theobromin oder 100 ppm Naringin von einer Expertengruppe jeweils mit einer Probe verglichen, die 500 ppm Coffein oder 300 ppm Theobromin oder 100 ppm Naringin und zusätzlich die jeweils angegebene Menge einer (hinsichtlich der Fähigkeit zur Bitter-Reduzierung) zu beurteilenden Substanz enthielt (Einstufung: 1 [nicht bitter] bis 10 [extrem bitter]). Für die Auswertung, d.h. die Berechnung der Reduktion (in %) des Bittereindrucks wurden jeweils die Durchschnittswerte der Einschätzungen der Expertengruppe verwendet. Die Ergebnisse sind in Tabelle 1 zusammengefasst: Tabelle 1 Bitter-reduzierung einer Bitterstofflösung

[2] = Bitterness reduction of a bitter substance solution (expert sensory panel), naringin; conditions: 100 ppm Naringin; for Bitter-Eindruck (1-10) mit Testsubstanz: scale 1 [nicht bitter] to 10 [extrem bitter]
Text: as §1

[3] = Bitterness reduction of a bitter substance solution (expert sensory panel), theobromine; conditions: 25 ppm test substance, 300 ppm Theobromin; for Bitter-Eindruck (1-10) mit Testsubstanz: scale 1 [nicht bitter] to 10 [extrem bitter]
Text: as §1

| Structure (SMILES) | % Reduktion des Bitter-Eindrucks (Signifikanz) ([1]; 10 ppm test substance, p < 0,0007) | Bitter-Eindruck (1-10) mit Testsubstanz ([1]; 10 ppm test substance, without test substance 3,8 ± 1,3) | % Reduktion des Bitter-Eindrucks (Signifikanz) ([2]; 25 ppm test substance, p < 0,0001) | Bitter-Eindruck (1-10) mit Testsubstanz ([2]; 25 ppm test substance, without test substance 6,6 ± 2,0) | Bitter-Eindruck (1-10) mit Testsubstanz ([3]; without test substance 3,6 ± 2,0) | % Reduktion des Bitter-Eindrucks (Signifikanz) ([3]; without test substance 3,6 ± 2,0, p < 0,25) | % Reduktion des Bitter-Eindrucks (Signifikanz) ([1]; 50 ppm test substance, p < 0,35) | Bitter-Eindruck (1-10) mit Testsubstanz ([1]; 50 ppm test substance, without test substance 3,5 ± 1,4) | % Reduktion des Bitter-Eindrucks (Signifikanz) ([2]; 50 ppm test substance, p < 0,02) | Bitter-Eindruck (1-10) mit Testsubstanz ([2]; 50 ppm test substance, without test substance 5,0 ± 2,0) | Bitter-Eindruck (1-10) mit Testsubstanz ([3]; without test substance 4,2 ± 2,2) |
| --- | --- | --- | --- | --- | --- | --- | --- | --- | --- | --- | --- |
| O=C1C[C@@H](c2ccncc2)c2c(O)cc(O)cc2O1 (racemic) [(1) + (2), (4S)-5,7-dihydroxy-4-(4-pyridyl)chroman-2-on (1) und (4R)-5,7-dihydroxy-4-(4-pyridyl)chroman-2-on (2)] | 37,0 % (p < 0,0007) | 2,4 + 1,0 | 52,1 % (p < 0,0001) | 3,2 + 1,5 | 2,9 ± 1,4 | 19,4 % (p < 0,25) |  |  |  |  |  |
| O=C1C[C@@H](c2cccnc2)c2c(O)cc(O)cc2O1 (racemic) [(3) + (4), (4S)-5,7-dihydroxy-4-(3-pyridyl)chroman-2-on (3) und (4R)-5,7-dihydroxy-4-(3-pyridyl)chroman-2-on (4)] |  |  |  |  |  |  | 13,7% (p < 0,35) | 3,1 ± 1,7 | 34,1 % (p < 0,02) | 3,3 ± 1,8 | 3,4 ± 1,8 |
